Results taken from patent US7892350B2, “Sacrificial agents for fly ash concrete” (Boral Material Technologies Inc., priority 2003, dated 2011).
Where two headings read alike, the source gives them in different places.

Test: Second sacrificial agent testing protocol: paste air measurements with DDBS (0.0125 wt %) and rating; on Overall performance rating (second protocol rating): key: 0: Fail; 1: Poor; 2: Good; 3: Preferred; 4: Most preferred; on SA Rating (0-4): key: 0: Fail; 1: Poor; 2: Good; 3: Preferred; 4: Most preferred
Outline: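 Air entrainment was measured in cement pastes of fixed composition and fluidity. The candidate agent was tested alone at 0.1 wt % in a cement-only paste. It was also tested at 0.05 and 0.1 wt % in a fly ash (B1)-cement paste with DDBS, where air recovery was calculated against the same paste without agent.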

[1] = B1 FA/cement paste, 0.0125 wt % DDBS, 0.05 wt % SA
[2] = B1 FA/cement paste, 0.0125 wt % DDBS, 0.10 wt % SA
[3] = Portland cement paste (PCA), […]
[4] = sacrificial agent overall rating index
[5] = sum of ratings of air entrainment recovery by 0.05% and 0.1% SA, DDBS 0.0125 wt %, 50:50 B1 fly ash:cement paste

Row | Compound | PCA + 0.1% SA (level of air entrainment by the candidate sacrificial agent) [3] | SA Rating (0-4) [4] | Overall performance rating (second protocol rating) | B1 + 0.0125% DDBS + 0.05% SA (air entrainment) (B1 FA/cement paste, […]) | B1 + 0.0125% DDBS + 0.1% SA (air entrainment) (B1 FA/cement paste, […]) | other results
1 | O=P([O-])([O-])O.[Na+].[Na+] [Sodium phosphate dibasic] | 0.0 | 0 | – | – | – | B1 + 0.0125% DDBS + 0.05% SA (air entrainment) [1]: 2.1; B1 + 0.0125% DDBS + 0.1% SA (air entrainment) [2]: 2.3
2 | O=P(O)(O)OP(=O)(O)OP(=O)(O)O [Sodium tripolyphosphate] | 0.2 | 0 | – | – | – | B1 + 0.0125% DDBS + 0.05% SA (air entrainment) [1]: 2.2; B1 + 0.0125% DDBS + 0.1% SA (air entrainment) [2]: 1.9
3 | OC[C@@H](O)[C@@H](O)[C@H](O)[C@@H](O)CO [Sorbitol] | 0.5 | 1 | 1 | 2.2 | 4.2 | –
4 | CCCC[N+](CCCC)(CCCC)CCCC.[Cl-] [Tetrabutyl ammonium chloride] | – | – | 3 | – | – | B1 + 0.0125% DDBS + 0.05% SA (air entrainment): 4.9; B1 + 0.0125% DDBS + 0.1% SA (air entrainment): 4.1; PCA + 0.1% SA (level of air entrainment by the candidate sacrificial agent): 0.6; SA Rating (0-4): 3
5 | CC[N+](CC)(CC)CC.[OH-] [Tetraethyl ammonium hydroxide] | – | – | – | – | – | B1 + 0.0125% DDBS + 0.05% SA (air entrainment): 2.3; B1 + 0.0125% DDBS + 0.1% SA (air entrainment): 3.0; PCA + 0.1% SA (level of air entrainment by the candidate sacrificial agent): 0.1; SA Rating (0-4): 0
6 | CC(O)CN(CC(C)O)CC(C)O (centres unmarked) [Tri-iso-propanolamine] | – | – | 4 | – | – | –
7 | CC(O)CN(CC(C)O)CC(C)O (centres unmarked) [Tri-isopropanolamine] | 1.3 | 4 | – | 5.6 | 7.6 | –
8 | CCN(CC)CC [Triethylamine] | – | – | 4 | – | – | B1 + 0.0125% DDBS + 0.05% SA (air entrainment): 5.2; B1 + 0.0125% DDBS + 0.1% SA (air entrainment): 5.1; PCA + 0.1% SA (level of air entrainment by the candidate sacrificial agent): 0.5; SA Rating (0-4): 4
9 | CCCN(CCC)CCC [Tripropylamine] | 0.3 | 0 | – | 2.6 | 2.4 | –
10 | NC(N)=O [Urea] | 0.1 | 2 | 2 | – | 2.0 | –
11 | CC(C)O [i-Propanol] | 2.4 | 1 | 1 | 3.7 | 4.1 | –
12 | CCCO [n-Propanol] | – | – | 1 | – | – | B1 + 0.0125% DDBS + 0.05% SA (air entrainment): 3.5; B1 + 0.0125% DDBS + 0.1% SA (air entrainment): 4.4; PCA + 0.1% SA (level of air entrainment by the candidate sacrificial agent): 2.0; SA Rating (0-4): 1
13 | C=CN1CCCC1=O [n-Vinyl-2-pyrrolidinone] | 2.8 | 1 | 1 | 3.7 | 4.3 | –
14 | CCCCN [n-butyl amine] | 1.2 | 4 | 4 | 5.7 | 8.1 | –
15 | CCCCNC(N)=O [n-butyl urea] | 2.1 | 4 | – | – | – | B1 + 0.0125% DDBS + 0.05% SA (air entrainment) [1]: 5.3; B1 + 0.0125% DDBS + 0.1% SA (air entrainment) [2]: 7.5; Overall performance rating (second protocol rating) [5]: 4
16 | COc1ccc(OC)cc1 [p-Dimethoxybenzene] | 0.7 | 2 | 2 | 4.7 | 4.0 | –
17 | Cc1ccc(S(=O)(=O)O)cc1 [p-Toluene Sulfonic acid] | 0.7 | 3 | 3 | 3.9 | 5.1 | –
18 | CC(C)(C)O [t-Butanol] | – | – | 4 | – | – | –
19 | CC(C)(C)O [tert-Butanol] | 0.8 | 4 | – | 6.3 | 7.0 | –
20 | OCCOCCOCCO [tri-Ethylene Glycol] | 0.9 | 1 | 1 | 3.1 | 4.1 | –
21 | CC(O)COC(C)COC(C)CO (centres unmarked) [tri-Propylene glycol] | 1.6 | 4 | 4 | 7.8 | 9.2 | –
22 | Aniline (Phenylamine) | 1.7 | 2 | – | 3.7 | 5.6 | –
23 | Methylnaphthalene sulfonate Na | – | – | – | – | – | Overall performance rating (second protocol rating) [5]: 4
24 | P(EG-ran-propylene-glycol) 2500 | – | – | 4 | – | – | –
25 | POE (20) Sorbitan monolaurate [Tween®] | – | – | – | – | – | Overall performance rating (second protocol rating) [5]: 4
26 | Polyethylene glycol 400 | – | – | – | – | – | Overall performance rating (second protocol rating) [5]: 4
27 | Polyethylene glycol 2000 | – | – | – | – | – | Overall performance rating (second protocol rating) [5]: 4
28 | Polypropylene glycol 425 | – | – | – | – | – | Overall performance rating (second protocol rating) [5]: 4
29 | Tetramethyl ammonium hydroxide | – | – | – | – | – | B1 + 0.0125% DDBS + 0.05% SA (air entrainment): 2.5; B1 + 0.0125% DDBS + 0.1% SA (air entrainment): 2.9; PCA + 0.1% SA (level of air entrainment by the candidate sacrificial agent): 0.1; SA Rating (0-4): 0
